# From patent publication US20090149420A1, “NOVEL COMPOSITIONS AND USE THEREOF FOR THE TREATMENT, CO-TREATMENT OR PREVENTION OF INFLAMMATORY DISORDERS” (priority 2007, published 2009)
# Legend:
# Assay type in all cases: cell-based
# [1] = system: MMP-2; assay: MMP-2 gene expression (mRNA, RT-PCR) in normal human chondrocytes; settings: 500 mg/L; 4 d; % of IL1β-treated cells set at 100%
# Protocol: (§1) The effect of a MA/HO (1:3 w/w) mixture in combination with chondroitin was tested on the expression of human aggrecan, collage I, collagen II, or chondrocyte transcription factors (SOX-6, -9) in vitro in normal human chondrocytes (derived from knee) (CC-2550; Cambrex, respectively). A control experiment without the compounds was done concomitantly to compare the expression of these genes (percentage expression of gene in controls was set to 100%). […] The level of mRNA was determined by RT-PCR (Richard et al. Mol. Nutr. Food Res. 49, 431-442, 2005) and expressed relative to the level observed in cells cultured without the substances. The given values indicate the level of gene expression (in % of unstimulated cells [set at 100%] for anabolic and anti-catabolic genes; in % of IL1β-treated cells [set at 100%], for catabolic genes).
# [2] = system: ADAMTS-5; assay: ADAMTS-5 gene expression (mRNA, RT-PCR) in normal human chondrocytes; settings: 500 mg/L; stim, 4 hrs; % of IL1β-treated cells set at 100%
# Protocol: (§2) The effect of a MA/HO (1:3 w/w) mixture in combination with chondroitin was tested on the expression of human aggrecan, collage I, collagen II, or chondrocyte transcription factors (SOX-6, -9) in vitro in normal human chondrocytes (derived from knee) (CC-2550; Cambrex, respectively). A control experiment without the compounds was done concomitantly to compare the expression of these genes (percentage expression of gene in controls was set to 100%). Normal human chondrocytes were cultured for 4 hours with MA/HO (1:3 w/w) (at 12.5 μmol/L), chondroitin (at 500 mg/L) as well as with both. The level of mRNA was determined by RT-PCR (Richard et al. Mol. Nutr. Food Res. 49, 431-442, 2005) and expressed relative to the level observed in cells cultured without the substances. The given values indicate the level of gene expression (in % of unstimulated cells [set at 100%] for anabolic and anti-catabolic genes; in % of IL1β-treated cells [set at 100%], for catabolic genes).
# [3] = system: SOX-9; assay: SOX-9 gene expression (mRNA, RT-PCR) in normal human chondrocytes; settings: 500 mg/L; % of unstimulated cells set at 100%
# Protocol: as §2
# [4] = system: murine macrophage cell line, RAW264.7; assay: Inhibition of nitric oxide synthesis in LPS-stimulated RAW264.7 macrophages (Griess reaction); settings: single substance
# Protocol: The anti-inflammatory effect of a mixture of MA/HO (1:3 w/w) in combination with chondroitin sulfate was determined in cellular assays by measuring the inhibition of the synthesis of nitric oxide. Nitric oxide (NO) is a hallmark of inflammation in various chronic inflammatory diseases including various forms of arthritis, gastro-intestinal diseases and metabolic syndrome X.
# The effects on the inflammatory response were tested in cellular assays using a murine macrophage cell line, RAW264.7. The cells were purchased from ATCC (Manassas, Va., USA) and cultured in DMEM containing streptomycin/penicillin, non-essential amino acids and 10% fetal calf serum (FCS). In order to test a large range of concentration of a mixture of MA and HO (1:3) as well as mixtures thereof, cells (˜50,000/well) were seeded into flat-bottomed microtiter plates and cultured for one day. […] Concentrations of nitrite which was rapidly formed from nitric oxide released by cells were determined by the Griess reaction using sodium nitrite as standard. Briefly, 50 μl of supernatant was mixed with Griess reagent 1 (25 μL) and Griess reagent 2 (25 μL), centrifuged and the optical density at 540 nm determined. […] IC50 values for LPS-stimulated cells were calculated using a […] least-square fitting equation [y=A+((B−A)/(1+((C−x)̂D))] for best-fit curves (Excel fit software program). […]
# [5] = system: TIMP-1; assay: TIMP-1 gene expression (mRNA, RT-PCR) in normal human chondrocytes; settings: 500 mg/L; unstim., 4 d; % of unstimulated cells set at 100%
# Protocol: as §1
# [6] = system: Aggrecan; assay: Aggrecan gene expression (mRNA, RT-PCR) in normal human chondrocytes; settings: 500 mg/L; stim., 4 hrs; control set at 100%
# Protocol: as §2
substance,measurement,setting,value
chondroitin sulfate,MMP-2 gene expression level,[1],93%
same,ADAMTS-5 gene expression level,[2],107%
same,SOX-9 gene expression level,[3],147%
same,IC50 Nitric Oxide,"[4]; RAW264.7, LPS 1 μg/ml, 24 hours",>50 µg/mL
same,"anti-inflammatory activity (inhibition of nitric oxide), in words","[4]; RAW264.7, LPS-stimulated",marginal anti-inflammatory
same,TIMP-1 gene expression level,[5],106%
same,Aggrecan gene expression level,[6],62%
